Earlier results, collected in US7339052B2, “Phosphoramidite activator for oligonucleotide synthesis” (Honeywell International Inc., priority 2005, dated 2008).

maximum solubility in acetonitrile: about 0.33 M
Structure (SMILES): c1ccc(CSc2nnn[nH]2)cc1 [BMT, 5-benzylmercaptotetrazole]
